A word on the IC50: it is the point on the concentration scale where inhibition reaches its midpoint.

Type in all cases: biochemical
One assay concerns PKC (mix of isoforms). Put plainly: PKC assay (counter screen). The settings on record: myelin basic protein substrate; read-out: Counter screens IC50 (μM) PKC. Here is the method: Final assay concentrations were as follows: 0.25 mM EGTA, 0.4 mM CaCl, 20 mM Tris pH 7.5, 10 mM MgCl, 1 mM 2-mercaptoethanol, 0.32 mg/ml phosphatidylserine, 0.032 mg/ml diacylglycerol, 10 μM ^33P-ATP, 70 μg/ml MBP, 10 ng/ml PKC, 0.1 mg/ml BSA.
Assays are performed using 96 deep well assay plates. In each assay well 10 μl of solvent control or appropriate inhibitor dilution with 5 μl ^33P-ATP (components #5 and #3) were premixed. In a separate tube, a mixture containing equal volumes of components #1, #2, #4, and #6 was prepared. The assay reaction was initiated by adding 35 μl of the components #1, #2, #4, and #6 mixture to wells containing ^33P-ATP and inhibitor. The liquid in the assay wells was thoroughly mixed and the assay reactions incubated for 20 minutes at room temperature. The reactions were stopped by adding 100 mM EDTA (50 μl) and 100 mM sodium pyrophosphate (50 μl) and mixing. Phosphorylated MBP was collected on PVDF membranes in 96 well filter plates and quantitated by scintillation counting.
In general terms: A counterscreen serves to expose hits that act by an unwanted route or on another target.

A further assay has as its target T1, Akt3 (Homo sapiens, UniProt Q9Y243).
T1 construct: a middle T tag was added to the 5′ end of the full length Akt3 clone using the PCR primer; biotin tag (from pS2neo vector); made in house; host or cells: Drosophila S2 cells
Put plainly: Akt kinase assay, phosphorylation of GSK3-derived peptide. An excerpt:
(§1) This procedure describes a kinase assay which measures phosphorylation of a biotinylated GSK3-derived peptide by human recombinant active Akt/PBK isoforms or Akt/PBK mutants. The ^33P-labeled biotinylated product can be captured and detected using Streptavidin coated Flashplates (NEN LifeSciences) or Streptavidin Membrane Filter Plates (Promega). Alternatively, a GSK3-derived peptide with 2 added lysine residues was used as the substrate and subsequently captured using Phosphocellulose Membrane Filter Plates (Polyfiltronics).
(§2) Active human Akt: The following active human Akt isoforms were utilized in the in vitro assays: active human Akt1 (obtained from Upstate Biotechnology, catalog no. 14-276, 15 μg/37 μl (6.76 μM)) or recombinant lipid activated Akt1 (prepared as described in Example 5); Akt2 (prepared as described in Example 5); Akt3 (prepared as described in Example 5); and delta PH-Akt1 (prepared as described in Example 5).
(§3) Akt specific peptide substrate: GSK3α (S21) Peptide #3928, biotin-[…] (SEQ.ID.NO.: 15), FW=1517.8 (obtained from Macromolecular Resources) for Streptavidin Flashplate or Streptavidin Filter Plate detection.
(§4) GSK3α (S21) Peptide #G80613, […] (SEQ.ID.NO.: 14), FW=1547.8 (obtained from Research Genetics) for Phosphocellulose filter plate detection.
(§5) • B. Active Akt (500 nM): Diluent (1× Assay buffer, 10% glycerol, 0.1% β-mercaptoethanol, 1.0 μM microcystin LR and 1.0 mM EDTA) was added to a vial containing 37 μl of active Akt isoform (6.76 μM). Aliquots were flash frozen in liquid N2 and stored at −70° C. • C. […] Procedure for Streptavidin Flash Plate Assay: Step 1: […]
(§6) The plates were covered with sealing tape and counted using the Packard TopCount with the appropriate settings for counting [^33P] in Flashplates. […]
(§7) The bottom of the plate was sealed with white backing tape, 30 μl/well of Microscint 20 (Packard Instruments, catalog no. 6013621) was added. The top of the plate was sealed with clear sealing tape, and the plate then counted using the Packard TopCount with the appropriate settings for [^33P] with liquid scintillant. […]

Another assay addresses T2, Akt2 (Homo sapiens, UniProt P31751).
T2 construct: a middle T tag was added to the 5′ end of the full length Akt2 using the PCR primer; biotin tag (from pS2neo vector); made in house; host or cells: Drosophila S2 cells
The description is as above.
Excerpt: as §1, §2, §3, §4, §5, §6, §7

In a further assay the target is T3, active human Akt1 (Homo sapiens, UniProt P31749).
T3 construct: purchased Upstate Biotechnology 14-276
The assay is described as above. The settings on record: GSK3 peptide substrate; read-out: GSK3 Peptide Substrate IC50 (μM) Akt-1.
Excerpt: as §1, §2, §3, §4, §5, §6, §7

A further assay addresses T4, delta PH-Akt1 (Homo sapiens, UniProt P31749).
T4 construct: PCR deletion mutagenesis was done using the full length Akt1 gene in the pS2neo vector as template; biotin tag (from pS2neo vector); made in house; host or cells: Drosophila S2 cells
Described as above. Here is the method: For the expression of a pleckstrin homology domain (PH) deleted (Δ aa 4-129, which includes deletion of a portion of the Akt1 hinge region) version of Akt1, PCR deletion mutagenesis was done using the full length Akt1 gene in the pS2neo vector as template. The PCR was carried out in 2 steps using overlapping internal primers (5′[…]Δ[…] 3′ (SEQ.ID.NO.: 6), and 5′[…]Δ[…] TATTC 3′ (SEQ.ID.NO.: 7)) which encompassed the deletion and 5′ and 3′ flanking primers which encompassed the KpnI site and middle T tag on the 5′ end. The final PCR product was digested with KpnI and SmaI and ligated into the pS2neo full length Akt1 KpnI/Sma I cut vector, effectively replacing the 5′ end of the clone with the deleted version.
This procedure describes a kinase assay which measures phosphorylation of a biotinylated GSK3-derived peptide by human recombinant active Akt/PBK isoforms or Akt/PBK mutants. The ^33P-labeled biotinylated product can be captured and detected using Streptavidin coated Flashplates (NEN LifeSciences) or Streptavidin Membrane Filter Plates (Promega). Alternatively, a GSK3-derived peptide with 2 added lysine residues was used as the substrate and subsequently captured using Phosphocellulose Membrane Filter Plates (Polyfiltronics). […]
as §6

Another assay has as its target T5, PKA catalytic subunit (Bos taurus, UniProt P00517).
T5 construct: purchased UBI (Upstate Biotechnology) 14-114
Put plainly: PKA assay (counter screen). How it is done: Each individual PKA assay consists of the following components: • 1) 10 μl 5×PKA assay buffer (200 mM Tris pH7.5, 100 mM MgCl2, 5 mM 2-mercaptoethanol, 0.5 mM EDTA) • 2) 10 μl of a 50 μM stock of Kemptide (Sigma) diluted into water • 3) 10 μl ^33P-ATP (prepared by diluting 1.0 μl ^33P-ATP [10 mCi/ml] into 200 μl of a 50 μM stock of unlabeled ATP) • 4) 10 μl appropriate solvent control dilution or inhibitor dilution • 5) 10 μl of a 70 nM stock of PKA catalytic subunit (UBI catalog #14-114) diluted in 0.5 mg/ml BSA
The final assay concentrations were 40 mM Tris pH 7.5, 20 mM MgCl2, 1 mM 2-mercaptoethanol, 0.1 mM EDTA, 10 μM Kemptide, 10 μM ^33P-ATP, 14 nM PKA and 0.1 mg/ml BSA.
Assays were assembled in 96 deep-well assay plates. Components #3 and #4 were premixed and in a separate tube, a mixture containing equal volumes of components #1, #2, and #5 was prepared. The assay reaction was initiated by adding 30 μl of the components #1, #2, and #5 mixture to wells containing ^33P-ATP and inhibitor. The liquid in the assay wells was mixed and the assay reactions incubated for 20 minutes at room temperature. […]
The enzyme reaction product (phosphorylated Kemptide) was quantitated using p81 phosphocellulose 96 well filter plates (Millipore). […] 30 μl scintillation fluid was added to each well and the filters counted on a TopCount (Packard).

Where only a bound is given, the exact number is not on record here.

T3 sequence (P31749 whole entry): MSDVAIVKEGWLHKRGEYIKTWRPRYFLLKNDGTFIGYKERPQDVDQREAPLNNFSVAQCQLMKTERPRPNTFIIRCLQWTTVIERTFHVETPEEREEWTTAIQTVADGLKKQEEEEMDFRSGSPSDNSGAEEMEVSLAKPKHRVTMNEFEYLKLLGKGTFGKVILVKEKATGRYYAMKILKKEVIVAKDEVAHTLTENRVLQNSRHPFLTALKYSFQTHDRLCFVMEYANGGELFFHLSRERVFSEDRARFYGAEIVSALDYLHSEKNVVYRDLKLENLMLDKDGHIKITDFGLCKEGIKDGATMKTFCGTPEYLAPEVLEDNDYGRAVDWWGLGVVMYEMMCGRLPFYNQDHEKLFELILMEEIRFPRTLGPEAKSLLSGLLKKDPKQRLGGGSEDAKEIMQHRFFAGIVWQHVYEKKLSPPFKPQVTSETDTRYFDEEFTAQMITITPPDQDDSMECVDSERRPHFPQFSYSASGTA
T1 sequence (Q9Y243 whole entry): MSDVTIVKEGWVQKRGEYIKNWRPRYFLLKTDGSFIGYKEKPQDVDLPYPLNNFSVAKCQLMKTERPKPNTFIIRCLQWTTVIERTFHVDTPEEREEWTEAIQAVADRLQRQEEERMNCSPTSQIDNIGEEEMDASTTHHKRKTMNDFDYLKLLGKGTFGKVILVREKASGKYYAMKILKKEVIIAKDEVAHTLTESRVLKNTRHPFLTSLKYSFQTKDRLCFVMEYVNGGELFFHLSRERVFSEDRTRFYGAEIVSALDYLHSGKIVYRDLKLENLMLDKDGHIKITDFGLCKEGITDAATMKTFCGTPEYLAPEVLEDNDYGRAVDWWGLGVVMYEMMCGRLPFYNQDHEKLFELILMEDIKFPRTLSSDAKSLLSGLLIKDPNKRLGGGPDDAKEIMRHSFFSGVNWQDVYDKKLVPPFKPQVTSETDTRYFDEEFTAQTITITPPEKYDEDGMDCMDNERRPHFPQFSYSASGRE
T2 sequence (P31751 whole entry): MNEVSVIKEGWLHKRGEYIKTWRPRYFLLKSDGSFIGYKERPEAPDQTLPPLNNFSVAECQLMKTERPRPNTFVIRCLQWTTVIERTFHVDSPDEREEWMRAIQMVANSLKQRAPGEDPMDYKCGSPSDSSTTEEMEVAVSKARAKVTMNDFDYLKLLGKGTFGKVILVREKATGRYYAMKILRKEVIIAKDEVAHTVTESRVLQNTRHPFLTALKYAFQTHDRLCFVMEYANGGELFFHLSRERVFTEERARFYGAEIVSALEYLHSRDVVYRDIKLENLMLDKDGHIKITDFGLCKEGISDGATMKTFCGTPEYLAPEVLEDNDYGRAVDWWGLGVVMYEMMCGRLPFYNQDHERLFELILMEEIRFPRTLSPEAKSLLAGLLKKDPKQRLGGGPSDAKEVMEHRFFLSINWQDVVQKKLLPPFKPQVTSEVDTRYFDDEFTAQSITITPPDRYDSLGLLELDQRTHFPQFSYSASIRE
T4 sequence (P31749 with tags, fused parts or gaps): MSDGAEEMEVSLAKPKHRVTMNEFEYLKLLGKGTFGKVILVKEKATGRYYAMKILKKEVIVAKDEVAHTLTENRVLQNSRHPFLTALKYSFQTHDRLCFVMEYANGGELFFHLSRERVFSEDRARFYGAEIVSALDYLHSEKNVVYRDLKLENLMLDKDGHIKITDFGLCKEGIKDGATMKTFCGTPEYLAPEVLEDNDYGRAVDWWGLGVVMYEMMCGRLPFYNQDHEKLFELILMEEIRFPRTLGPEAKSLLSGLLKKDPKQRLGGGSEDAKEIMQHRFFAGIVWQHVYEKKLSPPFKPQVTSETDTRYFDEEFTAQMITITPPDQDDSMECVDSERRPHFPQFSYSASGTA

Regarding `OCCOc1nn2c(-c3ccccc3)nnc2cc1-c1ccccc1` [Compound 1, 6-(2-Hydroxyethyl)oxy-3,7-diphenyl-[1,2,4]triazolo[4,3-b]pyridazine], the IC50 in the assay with PKC (mix of isoforms) was over 40 µM.
On to `OCCCCOc1nn2c(-c3ccccc3)nnc2cc1-c1ccccc1` [Compound 2], for which the IC50 is over 50 µM against Akt3; over 50 µM against Akt2; 4.65 µM at active human Akt1; over 50 µM at delta PH-Akt1; over 40 µM at PKA catalytic subunit; over 40 µM in the assay on PKC (mix of isoforms).
